# Laboratory results published in paper PMC8747035, “Design, Synthesis, and Biological Evaluation of 5,6,7,8-Tetrahydrobenzo[4,5]thieno[2,3-d]pyrimidines as Microtubule Targeting Agents” (Molecules, 2022).
# Tests used:
# [1] = test system: LOX IMVI; assay: NCI-60 growth inhibition, LOX IMVI; format: cell-based; details: Homo sapiens, Melanoma
# Description: (§1) Compound 4 had better potency than the lead compound 1 in 50 cancer cell lines. (better by 5 to 6-fold in leukemia, 2 to 17-fold in NSCLC, 2 to 6-fold in colon cancer, 2 to 5-fold in CNS cancer, 2 to 25-fold in melanoma, 2 to 5-fold in ovarian cancer, 2 to 9-fold in renal cancer, 2 to 5-fold in prostate cancer, and 2 to 6-fold in breast cancer compared to lead compound 1).
# [2] = test system: COLO 205; assay: NCI-60 growth inhibition, COLO 205; format: cell-based; details: Homo sapiens, Colon Cancer
# Description: as §1
# [3] = test system: IGROVI; assay: NCI-60 growth inhibition, IGROVI; format: cell-based; details: Homo sapiens, Ovarian Cancer
# Description: as §1
# [4] = test system: HS 578T; assay: NCI-60 growth inhibition, HS 578T; format: cell-based; details: Homo sapiens, Breast Cancer
# Description: as §1
# [5] = test system: Bovine brain tubulin; assay: Inhibition of purified tubulin assembly (turbidity); format: biochemical; details: 10 µM tubulin, 30 °C; read-out: Inhibition of Tubulin Assembly IC50 ± SD
# Description: Bovine brain tubulin was purified as described previously. The tubulin assembly assay has been described in detail. Briefly, 1.0 mg/mL of tubulin (10 µM) was preincubated for 15 min at 30 °C in 0.8 M monosodium glutamate (pH of 2 M stock solution adjusted to 6.6 with HCl), varying compound concentrations and 4% (v/v) DMSO as compound solvent. After the preincubation, the reaction mixtures were placed on ice and 0.4 mM GTP was added. The reaction mixtures were transferred to cuvettes at 0 °C in a recording spectrophotometer equipped with an electronic temperature controller. After baselines were established, the temperature was elevated over about 30 s to 30 °C, and changes in turbidity were monitored at 350 nm for 20 min. The compound concentration that caused a 50% reduction in increase in turbidity, interpolated from the values obtained with defined compound concentrations, was defined as the IC50 value. The assay to measure inhibition of [^3H]colchicine binding was described in detail previously. Briefly, 0.1 mg/mL (1.0 µM) tubulin was incubated at 37 °C with 5.0 µM [3H]colchicine and potential inhibitors at 5.0 µM. Incubation was for 10 min, at which point the reaction had reached 40–60% of the maximum colchicine that can be bound in reaction mixtures without inhibitor. The [^3H]colchicine was a product of PerkinElmer, USA. CA-4 was a generous gift of Dr. G. R. Pettit, Arizona State University.
# [6] = test system: NCI-H460; assay: NCI-60 growth inhibition, NCI-H460; format: cell-based; details: Homo sapiens, NSCLC
# Description: as §1
# [7] = test system: SF-268; assay: NCI-60 growth inhibition, SF-268; format: cell-based; details: Homo sapiens, CNS Cancer
# Description: as §1
# [8] = test system: SK-MEL-28; assay: NCI-60 growth inhibition, SK-MEL-28; format: cell-based; details: Homo sapiens, Melanoma
# Description: as §1
# [9] = test system: HL-60(TB); assay: NCI-60 growth inhibition, HL-60(TB); format: cell-based; details: Homo sapiens, Leukemia
# Description: as §1
# [10] = test system: UO-31; assay: NCI-60 growth inhibition, UO-31; format: cell-based; details: Homo sapiens, Renal Cancer
# Description: as §1
# [11] = test system: UACC-257; assay: NCI-60 growth inhibition, UACC-257; format: cell-based; details: Homo sapiens, Melanoma
# Description: as §1
# [12] = test system: ACHN; assay: NCI-60 growth inhibition, ACHN; format: cell-based; details: Homo sapiens, Renal Cancer
# Description: as §1
# [13] = test system: HOP-62; assay: NCI-60 growth inhibition, HOP-62; format: cell-based; details: Homo sapiens, NSCLC
# Description: as §1
# [14] = test system: HT29; assay: NCI-60 growth inhibition, HT29; format: cell-based; details: Homo sapiens, HT-29, Colon Cancer
# Description: as §1
# [15] = test system: MDA-MB-231/ATCC; assay: NCI-60 growth inhibition, MDA-MB-231/ATCC; format: cell-based; details: Homo sapiens, Breast Cancer
# Description: as §1
# [16] = test system: SF-539; assay: NCI-60 growth inhibition, SF-539; format: cell-based; details: Homo sapiens, CNS Cancer
# Description: as §1
# [17] = test system: SK-MEL-2; assay: NCI-60 growth inhibition, SK-MEL-2; format: cell-based; details: Homo sapiens, Melanoma
# Description: as §1
# [18] = test system: SW-620; assay: NCI-60 growth inhibition, SW-620; format: cell-based; details: Homo sapiens, Colon Cancer
# Description: as §1
structure (smiles),measurement,setting,value
"COc1ccc(N(C)c2nc(N)nc3sc4c(c23)CCCC4)cc1 [Compound 4, N4-(4-methoxyphenyl)-N4-methyl-5,6,7,8-tetrahydrobenzo[4,5]thieno[2,3-d]pyrimidine-2,4-diamine]",GI50,[1],10.1 nM
same,GI50,[2],10.8 nM
same,GI50,[3],12.8 nM
same,GI50,[4],13.5 nM
same,IC50,[5],820 ± 40 nM
same,GI50,[6],10.4 nM
same,GI50,[7],15.9 nM
same,GI50,[8],12.1 nM
same,GI50,[9],4.38 nM
same,GI50,[10],11.8 nM
same,GI50,[11],18.4 nM
same,GI50,[12],10.2 nM
same,GI50,[13],17.7 nM
same,GI50,[14],6.21 nM
same,GI50,[15],10.9 nM
same,GI50,[16],7.93 nM
same,GI50,[17],11.8 nM
same,GI50,[18],5.63 nM
